Experimental data published in patent US20020040032A1, “Methods for stimulation of synthesis of synaptophysin in the central nervous system” (priority 2000, published 2002).

Key:
PC12 cells = experiment: Differentiation of PC12 cells (Example 2); format: cell-based
synaptophysin [1] = experiment: Time course of synaptophysin accumulation after administration to PC12 cells, Western immunoblot (Example 2); format: cell-based
Experimental: To determine the time course of synaptophysin accumulation in the extracellular fluid after administration of AIT-082 or NGF to PC12 cells, an experiment similar to the experiment of Example 1 was carried out using multiple time points. Five to six million PC12 cells were treated in RPMI 1640 and 0.5% FBS with doses of AIT-082 (10 nM-100 μM). […] Levels of synaptophysin in samples from conditioned media and cell lysates were measured by Western immunoblotting with anti-synaptophysin antibodies.

synaptophysin [2] = experiment: Synaptophysin levels in PC12 cells after treatment, Western immunoblot (Example 1); format: cell-based
Experimental: PC12 cells were first grown to 70-80% confluence in the regular medium. A day prior to the experiment, PC12 cells were subcultured uniformly onto the plate with minimum cellular aggregation/clumping to approximately 1×10^6 cells per 60-mm plate. The PC12 cells were then subjected to treatments with either AIT-082, NGF, bFGF or a combination as previously described (5). AIT-082 was added into separate plates at […]: 0, 5, 20, 30, 50, 100, 300 ng/ml and also 1, 3, 10, 30, 100 μg/ml. For comparative purposes, cultures were treated with NGF at 10 and 50 ng/ml, and bFGF was used at 50 ng/ml. Additional cultures contained both AIT-082 (300 ng/ml) and either NGF (50 ng/ml) or bFGF (50 ng/ml). These different agents were prepared in the same culture medium and added to the respective plate. Following incubation for 48 hours, the conditioned medium from each plate was collected.
Total proteins from the conditioned media were analyzed on a 12% polyacrylamide gel containing SDS (SDS-PAGE), and western blot analysis was performed in the Mini-PROTEAN II system of Bio-Rad as described previously (7). Levels of synaptophysin in the conditioned medium and the cell lysates (intracellular) were analyzed using an anti-synaptophysin antibody (Boehringer Mannheim). A biotinylated secondary antibody, horse anti-mouse (Boehringer Mannheim), was also used. The detection system was based on the avidin-biotinylated-complex (Vector labs, Burlingame, Calif.) and enzymatic color reactions.

[3] = tested on: nerve growth factor (NGF), neurotrophin-3, and basic fibroblast growth factor (bFGF); settings: reference 4 (Rathbone et al. 1999); cited from earlier work

Compound | phenotype after treatment (PC12 cells) | levels of synaptophysin in the conditioned medium vs. control (synaptophysin [1]; 10 nM-100 μM, 6, 12, 24, 48, or 72 hours, each time point) | intracellular levels of synaptophysin (synaptophysin [1]; cell lysates, 10 nM-100 μM) | effect of cotreatment on NGF-mediated differentiation (PC12 cells; cotreatment with NGF) | dose giving the highest level of synaptophysin (synaptophysin [2]; PC12 cells, conditioned medium, densitometry, FIG. 2) [ng/mL] | amount of synaptophysin in the conditioned medium vs. control (synaptophysin [2]; PC12 cells, dose-dependent from 5-30 ng/ml, FIG. 1 lanes 5-8 vs. lane 1) | level of synaptophysin in the conditioned medium vs. control at higher doses (synaptophysin [2]; PC12 cells, doses above 30 ng/ml, increase not sustained to the same extent) | intracellular levels of synaptophysin vs. control (synaptophysin [2]; PC12 cultures, cell lysates) | induction of expression of neurotrophins [3]
NGF: Nerve growth factor procured from Life Technologies | sympathetic neuronal phenotypes | – | – | – | – | – | – | – | –
O=C(CCn1cnc2c(=O)[nH]cnc21)Nc1ccc(C(=O)O)cc1 [AIT-082, N-4-carboxyphenyl-3-(6-oxohydropurin-9-yl)propanamide] | – | significantly increased | significant increase | enhanced NGF-mediated differentiation | 30 | increased | still greater than the control | significant increase | can induce the expression of at least three neurotrophins
